Results on three molecules are retold here after US20220380432A1, “Acylated Calcitonin Mimetics” (KeyBioscience AG, priority 2018, published 2022).

Numbered stars: 1 amine (or outer) side, 2 acyl side, 3 side chain; on linkers, the order of the positions; unused ones are H or OH. Bridge positions count the residues as written; N and C are the ends. Square brackets hold non-standard residues; d marks the D form. Side chains are listed from the residue outwards. Ends that are not written are not given here. Peptide text beside a SMILES is read from it. * marks the point of attachment. C18 diacid = O=C(O)CCCCCCCCCCCCCCCCC(=O)*; γGlu = O=C(O)[C@H](CCC(=O)[*:2])N[*:1]; AEEA = NCCOCCOCC(=O)O; Aib = CC(C)(N)C(=O)O

Series [1] relates to serum albumin from humans (HSA). Format: binding, man (Homo sapiens). As to the method:
FIG. 14: Competitive ligand binding assay using radio labelled salmon calcitonin (^125I-sCT) as tracer and conducted 2% serum albumin from two different species, rat (Rattus norvegicus) and man (Homo sapiens). As a tracer 0.25 nM ^125I-sCT was used. A) Competitive binding assay conducted in 2% RSA. B) Competitive binding assay conducted in 2% HSA. Data as +/−SEM. To investigate whether the improved efficacy in the acute setting of acylation 4 and 5 could be translated to man, a competitive ligand binding assay was conducted to explore acylation binding to serum albumin in rodent and man.

The subject of another series is male ZDF rats. Briefly: Chronic study in male ZDF rats (food intake, body weight, FBG, HbA1c, OGTT). Format: in vivo, rat. As to conditions: 62-day study. As to the method: A chronic study was performed in male ZDF rats. (obese homozygous recessive (fa/fa) strain: 370) (Charles River, USA). Rats were delivered 5 weeks of age. The rats were housed 2-3 per cage.
Rats were delivered to the animal facility of Nordic Bioscience at five weeks of age (DAY −6). Rats were acclimatized for three days. HbA1c and BW was registered (DAY −3). Rats were randomized based on HbA1c (primarily) and BW (secondly) at […]. The study was initiated at DAY 1.
Animals were dosed once daily with KBP-066 or saline (vehicle). Dosing with KBP-066A11.03 was performed once every third day. Dosing was administered subcutaneously (SC) around noon.
Saline: Dosage volume was 1 mL/kg. […]
DAY −3: HbA1c measurement DAY 1: (first day of study), rats were fasted for 6 h and a BG and blood sample was taken. […] Hb1Ac is measured during the OGTT at t=120 or t=180. […]
Food intake was monitored daily. Body weight was monitored daily for first three weeks, then twice weekly after week three.
Fasting blood glucose was monitored every two weeks using Accu-Check® Avia monitoring system (Roche Diagnostics, Rotkreuz, Switzerland): Measurement was taken from the tail vein (25 G needle).
Rats were non-fasted for the first (randomization) and second (after the second OGTT) HbA1c measurement. A single drop of blood was applied to the HbA1c cassette and the HbA1c was measured using a DCA Vantage Analyzer. […]

For series [2], the target named is T1, Calcitonin Receptor (CTR) (Homo sapiens (Human), UniProt P30988).
T1 sequence: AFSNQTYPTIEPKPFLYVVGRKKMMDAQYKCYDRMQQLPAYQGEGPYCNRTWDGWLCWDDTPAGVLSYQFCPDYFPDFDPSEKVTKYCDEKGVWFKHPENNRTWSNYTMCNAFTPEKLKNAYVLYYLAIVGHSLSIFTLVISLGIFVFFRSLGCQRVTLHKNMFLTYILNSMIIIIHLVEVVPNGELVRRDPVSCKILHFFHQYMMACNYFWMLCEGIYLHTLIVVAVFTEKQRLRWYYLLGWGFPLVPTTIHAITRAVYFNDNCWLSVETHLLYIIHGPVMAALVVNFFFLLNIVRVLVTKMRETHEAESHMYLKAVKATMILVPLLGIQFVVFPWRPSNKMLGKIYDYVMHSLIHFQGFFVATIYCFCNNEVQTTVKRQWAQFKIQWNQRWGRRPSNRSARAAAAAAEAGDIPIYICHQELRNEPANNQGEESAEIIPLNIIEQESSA
The series can be described thus: cell-based or functional assay.

A further series has as its target T2, Amylin Receptor (AMY-R) (Homo sapiens (Human), UniProt P30988).
T2 sequence 1: T1 sequence
T2 sequence 2: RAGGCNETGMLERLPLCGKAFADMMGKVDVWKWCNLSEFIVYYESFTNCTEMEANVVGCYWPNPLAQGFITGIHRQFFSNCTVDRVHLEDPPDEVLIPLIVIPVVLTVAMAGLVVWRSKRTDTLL
The series can be described thus: cell-based or functional assay.

Consider `CC(=O)N[C@H]1CSSC[C@@H](C(=O)NC(C)(C)C(=O)N[C@@H](CC(C)C)C(=O)NCC(=O)N[C@@H](CCCCNC(=O)COCCOCCNC(=O)COCCOCCNC(=O)CC[C@H](NC(=O)CCCCCCCCCCCCCCCCC(=O)O)C(=O)O)C(=O)N[C@@H](CC(C)C)C(=O)N[C@@H](CO)C(=O)N[C@@H](CCC(N)=O)C(=O)N[C@@H](CC(=O)O)C(=O)N[C@@H](CC(C)C)C(=O)N[C@@H](Cc2c[nH]cn2)C(=O)N[C@@H](CCCNC(=N)N)C(=O)N[C@@H](CC(C)C)C(=O)N[C@@H](CCC(N)=O)C(=O)N[C@H](C(=O)N[C@@H](Cc2ccc(O)cc2)C(=O)N2CCC[C@H]2C(=O)N[C@@H](CCCCN)C(=O)N[C@H](C(=O)N[C@@H](CC(=O)O)C(=O)N[C@H](C(=O)NCC(=O)N[C@@H](C)C(=O)N[C@@H](CC(N)=O)C(=O)N[C@@H](C)C(=O)N2CCC[C@H]2C(N)=O)C(C)C)[C@@H](C)O)[C@@H](C)O)NC(=O)[C@H]([C@@H](C)O)NC(=O)[C@H](CO)NC(=O)[C@H](CC(C)C)NC(=O)[C@H](CC(N)=O)NC(=O)[C@H](CO)NC1=O` [KBP-356] (Ac-CSNLSTC[Aib]LGK([AEEA-AEEA-γGlu-C18 diacid])LSQDLHRLQTYPKTDVGANAP-NH2; disulfide 1-7 (inferred)), for which the “EC50 in competitive binding (in words)” value in series [1] is “no differences in EC50”.
With “CSNLSTC(AiB)LGRLSQDLHRLQTYPKTDVGANAP [KBP-066]”, the “fasting blood glucose (in words)” value in the series with male ZDF rats is “reduced FBG in a dose dependent manner”.

B1: KBP-318 (peptide)
peptide: Ac-CSNLSTCMLGRLSQELHRLQTYPKTDVGANAPK
modifications: not fully specified (residue 33); ends and bridges not checked
In the case of B1, the “β-arrestin Fold Recruitment EC50 values (10^-9 M)” value in series [2] worked out at 197 nM; with Amylin Receptor (AMY-R) it was 301 nM.
